# From patent US20240199587A1, “HETEROCYCLIC COMPOUNDS” (Hoffmann-La Roche Inc., priority 2021, published 2024)
# Biological target: T1, MAGL (Homo sapiens, UniProt Q99685)
# T1 sequence (Q99685 1-303): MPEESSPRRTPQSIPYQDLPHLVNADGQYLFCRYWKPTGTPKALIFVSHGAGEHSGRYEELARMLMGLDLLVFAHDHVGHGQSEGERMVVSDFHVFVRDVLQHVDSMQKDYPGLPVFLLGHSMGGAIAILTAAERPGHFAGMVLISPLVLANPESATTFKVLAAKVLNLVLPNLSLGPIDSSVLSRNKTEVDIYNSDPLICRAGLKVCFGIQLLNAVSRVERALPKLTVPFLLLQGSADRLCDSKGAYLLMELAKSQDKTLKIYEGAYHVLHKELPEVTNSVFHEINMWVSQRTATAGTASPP
# Assay: 2-AG assay (MAGL inhibitory activity, hydrolysis of 2-arachidonoylglycerol to arachidonic acid followed by mass spectrometry)
# Type: biochemical
# Conditions: 8 μM 2-arachidonoylglycerol, 15 min pre-incubation, 30 min incubation at RT, RapidFire MS readout
# Summary of the method: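 Arachidonic acid released from 8 μM 2-arachidonoylglycerol was quantified by online SPE triple-quadrupole MS (negative ESI, 303.1→259.1), normalised to d8-arachidonic acid internal standard. Reaction ran 30 min at RT after 15 min RT compound pre-incubation with […] MAGL in TRIS/EDTA/Tween-20 buffer, 2.5% DMSO.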
row,Compound,IC50 [nM]
1,"O=C(N1CC2(CC(n3cnc(C4CC4)n3)C2)C1)N1CC2(C1)CN(S(=O)(=O)c1ccc(F)c(F)c1)C2 [Example 273, [6-(3-cyclopropyl-1,2,4-triazol-1-yl)-2-azaspiro[3.3]heptan-2-yl]-[2-(3,4-difluorophenyl)sulfonyl-2,6-diazaspiro[3.3]heptan-6-yl]methanone]",34.4
2,"O=C(N1CC(Oc2ccnc(C3CC3)n2)C1)N1CC2(CC(n3cnc(C4CC4)n3)C2)C1 [Example 274, [3-(2-cyclopropylpyrimidin-4-yl)oxyazetidin-1-yl]-[6-(3-cyclopropyl-1,2,4-triazol-1-yl)-2-azaspiro[3.3]heptan-2-yl]methanone]",34.8
3,"O=C(N1CC(CNS(=O)(=O)c2ccc(C(F)(F)F)cc2)C1)N1CC2(CC(n3cnc(C4CC4)n3)C2)C1 [Example 276, N-[[1-[6-(3-cyclopropyl-1,2,4-triazol-1-yl)-2-azaspiro[3.3]heptane-2-carbonyl]azetidin-3-yl]methyl]-4-(trifluoromethyl)benzene-sulfonamide]",35.7
4,"O=C(N1CC2(CC(n3cnc(C4CC4)n3)C2)C1)N1CC2(C1)CN(S(=O)(=O)c1cnccc1Cl)C2 [Example 278, [2-[(4-chloro-3-pyridyl)sulfonyl]-2,6-diazaspiro[3.3]heptan-6-yl]-[6-(3-cyclopropyl-1,2,4-triazol-1-yl)-2-azaspiro[3.3]heptan-2-yl]methanone]",37.3
5,"CC(C)(C(=O)O)c1cccc(OC2CN(C(=O)N3CC4(CC(n5cnc(C6CC6)n5)C4)C3)C2)c1 [Example 279, 2-[3-[1-[6-(3-cyclopropyl-1,2,4-triazol-1-yl)-2-azaspiro[3.3]heptane-2-carbonyl]azetidin-3-yl]oxyphenyl]-2-methyl-propanoic acid]",38
6,"Cc1noc(C)c1S(=O)(=O)N1CC2(CN(C(=O)N3CC4(CC(n5cnc(C6CC6)n5)C4)C3)C2)C1 [Example 281, [6-(3-cyclopropyl-1,2,4-triazol-1-yl)-2-azaspiro[3.3]heptan-2-yl]-[2-(3,5-dimethylisoxazol-4-yl)sulfonyl-2,6-diazaspiro[3.3]heptan-6-yl]methanone]",41.3
7,"COc1ccc(S(=O)(=O)N2CC3(CN(C(=O)N4CC5(CC(n6cnc(C7CC7)n6)C5)C4)C3)C2)cc1 [Example 282, [6-(3-cyclopropyl-1,2,4-triazol-1-yl)-2-azaspiro[3.3]heptan-2-yl]-[2-(4-methoxyphenyl)sulfonyl-2,6-diazaspiro[3.3]heptan-6-yl]methanone]",44.6
8,"O=C(N1CC(Oc2ccnc(C(F)(F)F)n2)C1)N1CC2(CC(n3cnc(C4CC4)n3)C2)C1 [Example 283, [6-(3-cyclopropyl-1,2,4-triazol-1-yl)-2-azaspiro[3.3]heptan-2-yl]-[3-[2-(trifluoromethyl)pyrimidin-4-yl]oxyazetidin-1-yl]methanone]",48.3
9,"O=C(N1CC2(CC(n3cnc(C4CC4)n3)C2)C1)N1CC2(C1)CN(S(=O)(=O)c1cccc(Cl)n1)C2 [Example 286, [2-[(6-chloro-2-pyridyl)sulfonyl]-2,6-diazaspiro[3.3]heptan-6-yl]-[6-(3-cyclopropyl-1,2,4-triazol-1-yl)-2-azaspiro[3.3]heptan-2-yl]methanone]",58.6
10,"CC1(S(=O)(=O)N2CC3(CN(C(=O)N4CC5(CC(n6cnc(C7CC7)n6)C5)C4)C3)C2)CC1 [Example 288, [6-(3-cyclopropyl-1,2,4-triazol-1-yl)-2-azaspiro[3.3]heptan-2-yl]-[2-(1-methylcyclopropyl)sulfonyl-2,6-diazaspiro[3.3]heptan-6-yl]methanone]",62
11,"COc1cc(F)ccc1S(=O)(=O)N1CC2(CN(C(=O)N3CC4(CC(n5cnc(C6CC6)n5)C4)C3)C2)C1 [Example 290, [6-(3-cyclopropyl-1,2,4-triazol-1-yl)-2-azaspiro[3.3]heptan-2-yl]-[2-(4-fluoro-2-methoxy-phenyl)sulfonyl-2,6-diazaspiro[3.3]heptan-6-yl]methanone]",70.7
12,"O=C(c1ccc(F)cc1Cl)N1CC2(C1)CN(C(=O)N1CC3(CC(n4cnc(C5CC5)n4)C3)C1)C2 [Example 292, (2-chloro-4-fluoro-phenyl)-[2-[6-(3-cyclopropyl-1,2,4-triazol-1-yl)-2-azaspiro[3.3]heptane-2-carbonyl]-2,6-diazaspiro[3.3]heptan-6-yl]methanone]",77.1
13,"CC(=O)Nc1ccc(S(=O)(=O)N2CC3(CN(C(=O)N4CC5(CC(n6cnc(C7CC7)n6)C5)C4)C3)C2)cc1 [Example 295, N-[4-[[6-[6-(3-cyclopropyl-1,2,4-triazol-1-yl)-2-azaspiro[3.3]heptane-2-carbonyl]-2,6-diazaspiro[3.3]heptan-2-yl]sulfonyl]phenyl]acetamide]",89
14,"O=C(N1CC2(CC(n3cnc(C4CC4)n3)C2)C1)N1CC2(C1)CN(S(=O)(=O)CC1CC1)C2 [Example 296, [2-(cyclopropylmethylsulfonyl)-2,6-diazaspiro[3.3]heptan-6-yl]-[6-(3-cyclopropyl-1,2,4-triazol-1-yl)-2-azaspiro[3.3]heptan-2-yl]methanone]",91.5
15,"O=C(N1CC2(CC(n3cnc(C4CC4)n3)C2)C1)N1CC2(C1)CN(S(=O)(=O)c1cccnc1C(F)(F)F)C2 [Example 297, [6-(3-cyclopropyl-1,2,4-triazol-1-yl)-2-azaspiro[3.3]heptan-2-yl]-[2-[[2-(trifluoromethyl)-3-pyridyl]sulfonyl]-2,6-diazaspiro[3.3]heptan-6-yl]methanone]",94.4
16,"NC(=O)c1ccc(S(=O)(=O)N2CC3(CN(C(=O)N4CC5(CC(n6cnc(C7CC7)n6)C5)C4)C3)C2)cc1 [Example 298, 4-[[6-[6-(3-cyclopropyl-1,2,4-triazol-1-yl)-2-azaspiro[3.3]heptane-2-carbonyl]-2,6-diazaspiro[3.3]heptan-2-yl]sulfonyl]benzamide]",95.5
17,"CC(C)(Cc1cccc(OC2CN(C(=O)N3CC4(CC(n5cnc(C6CC6)n5)C4)C3)C2)c1)C(=O)O [Example 299, 3-[3-[1-[6-(3-cyclopropyl-1,2,4-triazol-1-yl)-2-azaspiro[3.3]heptane-2-carbonyl]azetidin-3-yl]oxyphenyl]-2,2-dimethyl-propanoic acid]",95.7
18,"Cc1oncc1S(=O)(=O)N1CC2(CN(C(=O)N3CC4(CC(n5cnc(C6CC6)n5)C4)C3)C2)C1 [Example 300, [6-(3-cyclopropyl-1,2,4-triazol-1-yl)-2-azaspiro[3.3]heptan-2-yl]-[2-(5-methylisoxazol-4-yl)sulfonyl-2,6-diazaspiro[3.3]heptan-6-yl]methanone]",95.7
19,O=C(N1CC(CNS(=O)(=O)c2ccc(F)cc2C(F)(F)F)C1)N1CC2(CC(n3cnc(C4CC4)n3)C2)C1 [Example 302],101

# Results, then the compound that gave them:
row,IC50 [nM],Compound
1,35.3,"O=C(c1ccc(F)cc1C(F)(F)F)N1CC2(C1)CN(C(=O)N1CC3(CC(n4cnc(C5CC5)n4)C3)C1)C2 [Example 275, [2-[6-(3-cyclopropyl-1,2,4-triazol-1-yl)-2-azaspiro[3.3]heptane-2-carbonyl]-2,6-diazaspiro[3.3]heptan-6-yl]-[4-fluoro-2-(trifluoromethyl)phenyl] methanone]"
2,37.2,"O=C(N1CC2(CC(NC(=O)C3(C(F)(F)F)CC3)C2)C1)N1CC2(CC(n3cnc(C4CC4)n3)C2)C1 [Example 277, N-[2-[6-(3-cyclopropyl-1,2,4-triazol-1-yl)-2-azaspiro[3.3]heptane-2-carbonyl]-2-azaspiro[3.3]heptan-6-yl]-1-(trifluoromethyl) cyclo-propanecarboxamide]"
3,39.4,"O=C(N1CC(Oc2ccc(C3CC3)nn2)C1)N1CC2(CC(n3cnc(C4CC4)n3)C2)C1 [Example 280, [3-(6-cyclopropylpyridazin-3-yl)oxyazetidin-1-yl]-[6-(3-cyclopropyl-1,2,4-triazol-1-yl)-2-azaspiro[3.3]heptan-2-yl]methanone]"
4,49.9,"O=C(N1CC2(CC(n3cnc(C4CC4)n3)C2)C1)N1CC2(C1)CN(S(=O)(=O)N1CCCC1)C2 [Example 284, [6-(3-cyclopropyl-1,2,4-triazol-1-yl)-2-azaspiro[3.3]heptan-2-yl]-(2-pyrrolidin-1-ylsulfonyl-2,6-diazaspiro[3.3]heptan-6-yl)methanone]"
5,54.3,"O=C(N1CC(Oc2cc(C(F)(F)F)ncn2)C1)N1CC2(CC(n3cnc(C4CC4)n3)C2)C1 [Example 285, [6-(3-cyclopropyl-1,2,4-triazol-1-yl)-2-azaspiro[3.3]heptan-2-yl]-[3-[6-(trifluoromethyl)pyrimidin-4-yl]oxyazetidin-1-yl]methanone]"
6,59.4,"N#Cc1cccc(S(=O)(=O)N2CC3(CN(C(=O)N4CC5(CC(n6cnc(C7CC7)n6)C5)C4)C3)C2)c1 [Example 287, 3-[[6-[6-(3-cyclopropyl-1,2,4-triazol-1-yl)-2-azaspiro[3.3]heptane-2-carbonyl]-2,6-diazaspiro[3.3]heptan-2-yl]sulfonyl]benzonitrile]"
7,62.1,"O=C(N1CC(c2nnc(-c3ccc(F)cc3F)[nH]2)C1)N1CC2(CC(n3cnc(C4CC4)n3)C2)C1 [Example 289, [6-(3-cyclopropyl-1,2,4-triazol-1-yl)-2-azaspiro[3.3]heptan-2-yl]-[3-[5-(2,4-difluorophenyl)-4H-1,2,4-triazol-3-yl]azetidin-1-yl]methanone]"
8,78,"NS(=O)(=O)c1ccc(C2CN(C(=O)N3CC4(CC(n5cnc(C6CC6)n5)C4)C3)C2)cc1 [Example 293, 4-[1-[6-(3-cyclopropyl-1,2,4-triazol-1-yl)-2-azaspiro[3.3]heptane-2-carbonyl]azetidin-3-yl]benzenesulfonamide]"
9,81.6,NC(=O)c1ccc(F)c(S(=O)(=O)N2CC3(CN(C(=O)N4CC5(CC(n6cnc(C7CC7)n6)C5)C4)C3)C2)c1 [Example 294]
